{
  "source": "patent US20220387457A1",
  "about": "(Qlaris Bio, Inc., priority 2020, published 2022)",
  "key": {"[1]": {"tested_on": "human alkaline phosphatase (ALP)", "assay": "Conversion of CKLP1 by human alkaline phosphatase, LC/MS-MS, pH 7.4", "assay_type": "biochemical", "conditions": "up to 2 hours", "description": "Conversion of CKLP1 (200 μM-5.0 mM) was examined by LC/MS-MS following incubation at pH 7.4 with either human alkaline phosphatase (ALP), acid phosphatase, or 5′-nucleotidase (2.01 nM-1.0 μM) for up to 2 hours."}, "[2]": {"tested_on": "normotensive hound dogs (IOP)", "assay": "Dose response of CKLP1 on IOP in hound dogs", "assay_type": "in vivo, hound dog", "conditions": "for IOP lowering: 5 consecutive days, vs baseline", "description": "In order to determine the optimal topical ocular dose of CKLP1 for subsequent pharmacokinetic studies, hound dogs (n=3) were treated with four different concentrations of CKLP1 (5 mM, 10 mM, 15 mM and 20 mM) once daily for 5 consecutive days. […] No difference in IOP reduction was noted between the 10 and 15 mM doses (p=0.57). To utilize the lowest dose concentration with effective IOP reduction, a 50 μL topical ocular administration of 10 mM CKLP1 was selected as the optimal dose for all subsequent experiments.\nIOP was measured three times each day at times that corresponded to 1 hour, 4 hours and 23 hours post treatment. The average of the measurements at three time points on any given day was recorded as the daily IOP.\nFor the dose response study, baseline IOP measurements were obtained and recorded (three consecutive days prior to treatment). One eye of each dog was treated with a 50 μL topical ocular administration of 5 mM CKLP1 and the contralateral eye was treated with 10 mM CKLP1 once daily for 5 consecutive days. After 5 days, the eyes that received 5 mM CKLP1 was treated with 15 mM CKLP1 while the eye with 10 mM CKLP1 received 20 mM CKLP1. IOPs were measured every day at times corresponding to 1, 4, and 23 hours post treatment. For all experiments, the right eye was used as control while the left eye was selected as the treatment eye."}, "[3]": {"tested_on": "normotensive hound dogs (IOP)", "assay": "Extended-dose (61 days) study of CKLP1 on IOP in hound dogs", "assay_type": "in vivo, hound dog", "description": "To evaluate the effect of IOP lowering long-term, hound dogs (n=5) were treated with 10 mM CKLP1 in one eye and vehicle (PBS) in the contralateral eye once daily for 61 consecutive days. […] On average, IOP was reduced by 18.9±1.3% (reduction of 3.0±0.5 mmHg; p<0.001) in all five hound dogs over the entire treatment period. Additionally, no significant change in systolic (baseline, 141.0±6.7; treatment, 138.9±9.5; p=0.56) or diastolic (baseline, 80.1±8.9; treatment, 78.1±5.9; p=0.76) blood pressure was observed during the treatment period (FIG. 7B). Hound dogs were also evaluated for eye redness, swelling of the eye or eyelids, unusual discharge from eye and overall food intake.\nFor the extended dose study, baseline IOPs were measured three times daily for 5 consecutive days. The average of the three measurements was recorded as the daily IOP and averaged over the 5 days for the final pre-treatment value. Following baseline IOP measurements, dogs (n=5) were treated with 10 mM CKLP1 in one eye, while the contralateral eye received vehicle (PBS). IOP was measured at least three times every week at times corresponding to 1, 4, and 23 hours post treatment. Blood pressure was measured three times each week at the 4 hour post treatment time point."}, "[4]": {"tested_on": "African green monkeys (IOP)", "assay": "Effect of CKLP1 on IOP in African green monkeys", "assay_type": "in vivo, African green monkey", "description": "(§1) To further validate the IOP lowering effects of CKLP1 in large animal models, one eye of five African green monkeys was treated with topical ocular administration of 10 mM CKLP1, while the contralateral eye received vehicle (PBS). Baseline IOP in control and treated eyes were 20.1±1.8 mmHg and 21.9±2.5 mmHg, respectively.\n(§2) For treatment days, 10 mM CKLP1 (dissolved in PBS) was added to one eye of each monkey in a 50 μl topical ocular administration, once daily, for 7 consecutive days, while the contralateral eye received a 50 μl ocular administration of vehicle (PBS)."}, "[5]": {"assay": "Toxicity and clinical signs after escalating intravenous doses of CKLP1 in beagles", "assay_type": "in vivo, beagle dog", "conditions": "both sexes, beagle, dog, in vivo", "description": "(§3) Two beagles (one male and one female) were intravenously injected with escalating doses of CKPL1 (0.05 mg/kg, 0.5 mg/kg, 1.5 mg/kg, 3 mg/kg, and 5 mg/kg) to assess the toxicity of CKLP1. The injection was done through the cephalic vein and CKLP1 was administered in a phosphate buffered saline solution ((0.096% sodium phosphate dibasic, 0.089% sodium dihydrogen orthophosphate monohydrate, 0.83% sodium chloride) pH 6.5±0.1 in sterile water for injection USP). The dosing schedule is shown below in Table 3.\n(§4) The following parameters and endpoints were evaluated: mortality, clinical observations, body and organ weights, and food consumption. Bioanalytical samples for toxicokinetic parameters (for both CKLP1 and leveromakalim) were collected after each dose level (days 1, 3, 8, 10, and 14) at predose, 1, 3, 6, 8, and 24 hours postdose. Animals were released from the study after completion of the bioanalytical sample collection schedule."}, "[6]": {"tested_on": "beagles", "assay": "Toxicity and clinical signs after escalating intravenous doses of CKLP1 in beagles", "assay_type": "in vivo, beagle dog", "conditions": "for dose with red discoloration of the skin: IV", "description": "as §3, §4"}, "[7]": {"tested_on": "African green monkeys (systemic blood pressure)", "assay": "Systemic blood pressure in African green monkeys during 7-day topical CKLP1", "assay_type": "in vivo, African green monkey", "conditions": "10 mM CKLP1, 7 days", "description": "as §1, §2"}, "[8]": {"tested_on": "3D-glaucomatous human trabecular meshwork/Schlemm's canal tissue model", "assay": "Outflow facility by perfusion in 3D-glaucomatous human trabecular meshwork/Schlemm's canal constructs", "assay_type": "cell-based", "conditions": "levcromakalim 1 μM, TGF-β2 treated constructs, 4 donors, vs TGF-β2 (P<0.0001) or Y-27632 (P<0.05)", "description": "Bioengineered 3D conventional outflow tract constructs using 4 donors (ages 47-91) were treated with […] (5 ng/mL) for 6 days. […] Protein expression of α-smooth muscle actin (α-SMA), CD31, endothelin-I, fibronectin, VE-cadherin, phospho-eNOS and total eNOS was analyzed via western blot. Cellular expression of α-SMA, fibronectin, phospho-eNOS and total eNOS was determined by immunocytochemistry and confocal microscopy. Statistical significance was determined by one-way ANOVA with a Tukey's multiple comparisons test, or by two-way ANOVA."}, "[9]": {"conditions": "10 mM CKLP1 once daily, 61 days, vs vehicle eye"}, "[10]": {"conditions": "10 mM CKLP1 topical once daily, 7 days"}},
  "data": [
    {"smiles": "CC1(C)Oc2ccc(C#N)cc2[C@@H](N2CCCC2=O)[C@@H]1OP(=O)(O)O", "note": "[CKLP1]", "values": [
      {"measurement": "rate constant for catalytic conversion (kcat)", "setting": "[1]; CKLP1 200 μM-5.0 mM", "value": 0.25, "unit": "s⁻¹"},
      {"measurement": "Km", "setting": "[1]; CKLP1 200 μM-5.0 mM, read-out: Michaelis constant (Km)", "value": 630, "unit": "µM"},
      {"measurement": "conversion of CKLP1 to levcromakalim", "setting": "[1]; human ALP", "value": "converted"},
      {"measurement": "IOP lowering, all concentrations", "setting": "[2]; 5 mM, 10 mM, 15 mM and 20 mM, p≤0.01", "value": "significant IOP lowering"},
      {"measurement": "IOP lowering", "setting": "[2]; 10 mM CKLP1 topical once daily", "value": "2.3±0.5", "unit": "mmHg"},
      {"measurement": "IOP lowering", "setting": "[2]; 15 mM CKLP1 topical once daily", "value": "2.5±0.4", "unit": "mmHg"},
      {"measurement": "average IOP in treated eye", "setting": "[3]; 10 mM CKLP1 once daily, 61 consecutive days", "value": "12.9±2.0", "unit": "mmHg"},
      {"measurement": "eye redness, swelling of the eye or eyelids, unusual discharge from eye, food intake", "setting": "[3]; 10 mM CKLP1 once daily, 61 days", "value": "No notable findings"},
      {"measurement": "IOP reduced by", "setting": "[3]; [9]", "value": "18.9±1.3", "unit": "%"},
      {"measurement": "IOP reduction", "setting": "[3]; [9]", "value": "3.0±0.5", "unit": "mmHg"},
      {"measurement": "return of IOP to baseline after CKLP1 administration", "setting": "[3]; dogs (FIG. 7A), same effect in African green monkeys (FIG. 8A)", "value": "greater than 24 hours"},
      {"measurement": "IOP lowered by (summary)", "setting": "[3]; hound dogs", "value": "approximately 19%"},
      {"measurement": "IOP reduction compared to baseline", "setting": "[4]; [10]", "value": "3.8±1.8", "unit": "mmHg"},
      {"measurement": "change in IOP", "setting": "[4]; [10]", "value": "16.7±6.7", "unit": "%"},
      {"measurement": "IOP lowered by (summary)", "setting": "[4]; African green monkeys", "value": "approximately 17%"},
      {"measurement": "NOAEL", "setting": "[5]; iv, read-out: no-observed adverse effect level (NOAEL)", "value": 3, "unit": "mg/kg"},
      {"measurement": "MTD", "setting": "[5]; single escalating IV doses, read-out: maximum tolerated dose (MTD)", "value": 3, "unit": "mg/kg"},
      {"measurement": "adverse clinical signs", "setting": "[6]; IV 5 mg/kg", "value": "increased heart rate, warm to touch, and/or partly closed eyes"},
      {"measurement": "Clinical Signs", "setting": "[6]; IV CKLP1 0.5 mg/kg", "value": "red discoloration of the skin (pinnae, gums, generalized"},
      {"measurement": "Clinical Signs", "setting": "[6]; IV CKLP1 1.5 mg/kg", "value": "red discoloration of the skin (pinnae, gums, generalized"},
      {"measurement": "Clinical Signs", "setting": "[6]; IV CKLP1 3 mg/kg", "value": "red discoloration of the skin (pinnae, gums, generalized"},
      {"measurement": "Clinical Signs", "setting": "[6]; IV CKLP1 5 mg/kg", "value": "red discoloration of the skin (pinnae, gums, generalized"},
      {"measurement": "histological examination", "setting": "[6]; escalating IV doses", "value": "no systemic toxicity"},
      {"measurement": "mortality, body weight, food consumption", "setting": "[6]; escalating IV doses 0.05-5 mg/kg", "value": "No mortality, change in body weight or food consumption"},
      {"measurement": "dose with red discoloration of the skin", "setting": "[6]; female dog", "value": "≥ 0.5", "unit": "mg/kg"},
      {"measurement": "peripheral vasodilation", "setting": "[6]; following intravenous administration in dogs", "value": "induces peripheral vasodilation"},
      {"measurement": "dose with red discoloration of the skin", "setting": "[6]; male dog", "value": "≥ 0.05", "unit": "mg/kg"},
      {"measurement": "diastolic pressure following treatment", "setting": "[7]; baseline 68.1±6.0, p=0.13", "value": "76.0±8.2", "unit": "mmHg"},
      {"measurement": "systolic pressure after treatment", "setting": "[7]; baseline 118.7±12.0, p=0.6", "value": "121.1±7.3", "unit": "mmHg"}
    ]},
    {"smiles": "CC1(C)Oc2ccc(C#N)cc2[C@@H](N2CCCC2=O)[C@@H]1O", "note": "[Levcromakalim, levcromakalim, reference compound]", "values": [
      {"measurement": "outflow facility (hydraulic conductivity)", "setting": "[8]", "value": "significantly improved outflow facility"},
      {"measurement": "outflow facility (hydraulic conductivity)", "setting": "[8]; listed as Leveromakalim", "value": "significantly increased outflow facility"}
    ]}
  ]
}
